Measurements from ChEMBL document CHEMBL1134993, “Synthesis of [difluoro-(3-alkenylphenyl)-methyl]-phosphonic acids on non-crosslinked polystyrene and their evaluation as inhibitors of PTP1B” (Bioorg Med Chem Lett, 2002).
The source made the active and inactive calls. No cut-off for these calls is given here.

The compounds below were run against T1, Tyrosine-protein phosphatase non-receptor type 1 (Homo sapiens, UniProt P18031) (assay: Binding affinity towards protein-tyrosine phosphatase 1B (PTP1B)).
T1 sequence (P18031 whole entry): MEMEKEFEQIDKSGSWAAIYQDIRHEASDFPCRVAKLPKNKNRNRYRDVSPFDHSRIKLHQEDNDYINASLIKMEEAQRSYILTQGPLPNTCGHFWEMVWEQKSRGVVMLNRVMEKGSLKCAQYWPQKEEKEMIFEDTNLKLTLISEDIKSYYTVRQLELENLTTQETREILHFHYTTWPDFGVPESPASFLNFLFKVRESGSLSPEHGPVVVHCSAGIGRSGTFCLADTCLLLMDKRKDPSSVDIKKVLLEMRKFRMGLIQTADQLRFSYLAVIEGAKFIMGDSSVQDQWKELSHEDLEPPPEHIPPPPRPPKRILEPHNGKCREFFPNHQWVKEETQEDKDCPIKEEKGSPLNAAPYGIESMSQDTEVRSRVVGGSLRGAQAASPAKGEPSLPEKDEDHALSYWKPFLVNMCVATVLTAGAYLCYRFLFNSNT

Ki | Compound
8 mM | C=CCOC(=O)/C=C\c1cccc(C(F)(F)P(=O)(O)O)c1

The compounds below were run against T2, Tyrosine-protein phosphatase non-receptor type 1 (Homo sapiens) (UniProt P18031) (assay: Compound was evaluated for its percent Inhibition of protein-tyrosine phosphatase 1B (PTP1B) at the concentration of 50 uM; Showed little or no inhibition).
T2 sequence (whole entry): T1 sequence (P18031 whole entry)

inhibition | Compound
inactive | O=P(O)(O)C(F)(F)c1cccc(/C=C\c2ccc(Br)cc2)c1
inactive | O=P(O)(O)C(F)(F)c1cccc(/C=C\c2ccc(Cl)cc2)c1
inactive | O=P(O)(O)C(F)(F)c1cccc(/C=C\c2ccc(F)cc2)c1
inactive | O=P(O)(O)C(F)(F)c1cccc(/C=C\c2ccccc2)c1
inactive | Cc1ccccc1/C=C\c1cccc(C(F)(F)P(=O)(O)O)c1
inactive | O=[N+]([O-])c1ccc(/C=C\c2cccc(C(F)(F)P(=O)(O)O)c2)cc1
inactive | CCOc1ccc(/C=C\c2cccc(C(F)(F)P(=O)(O)O)c2)cc1
inactive | Cc1ccc(/C=C\c2cccc(C(F)(F)P(=O)(O)O)c2)cc1

What follows are compounds tested against T1, Tyrosine-protein phosphatase non-receptor type 1 (assay: Inhibitory concentration against protein-tyrosine phosphatase 1B (PTB 1B)).

Compound | IC50
O=P(O)(O)C(F)(F)c1cccc(-c2ccccc2)c1 | 15 µM

Each compound was assayed against T2, Tyrosine-protein phosphatase non-receptor type 1 (Homo sapiens) (assay: Compound was evaluated for its percent Inhibition of protein-tyrosine phosphatase 1B (PTP1B) at the concentration of 50 uM).

Compound | inhibition
CCOC(=O)/C=C\c1cccc(C(F)(F)P(=O)(O)O)c1 | 53%
COC(=O)/C=C\c1cccc(C(F)(F)P(=O)(O)O)c1 | 23%
C=CCOC(=O)/C=C\c1cccc(C(F)(F)P(=O)(O)O)c1 | 84%
N#C/C=C\c1cccc(C(F)(F)P(=O)(O)O)c1 | 45%

Next, values leading:

inhibition | Compound
70% | O=P(O)(O)C(F)(F)c1cccc(/C=C\C=C\c2ccccc2)c1
71% | O=C(/C=C\c1cccc(C(F)(F)P(=O)(O)O)c1)OCc1ccccc1
60% | O=P(O)(O)C(F)(F)c1cccc(/C=C\c2cccc3ccccc23)c1

The compounds below were run against T2, Tyrosine-protein phosphatase non-receptor type 1 (Homo sapiens) (assay: Compound was evaluated for its percent Inhibition of protein-tyrosine phosphatase 1B (PTP1B) at the concentration of 50 uM; […]).

inhibition | Compound
inactive | CC(C)=C/C=C\c1cccc(C(F)(F)P(=O)(O)O)c1
inactive | CN(C)C/C=C\c1cccc(C(F)(F)P(=O)(O)O)c1
inactive | O=P(O)(O)C(F)(F)c1cccc(/C=C\CCc2ccccc2)c1
inactive | O=P(O)(O)C(F)(F)c1cccc(/C=C\Cl)c1
inactive | CC/C=C\c1cccc(C(F)(F)P(=O)(O)O)c1

What follows are compounds tested against T1, Tyrosine-protein phosphatase non-receptor type 1 (assay: Inhibitory concentration against Protein-tyrosine phosphatase 1B (PTP1B)).

IC50 | Compound
12.2 mM | C=CCOC(=O)/C=C\c1cccc(C(F)(F)P(=O)(O)O)c1
